# Results reported in patent US10080729B2, “Composition for use in the treatment of intervertebral misalignment” (STAYBLE THERAPEUTICS AB, priority 2015, dated 2018).
# Key:
# pig = experiment: Tolerability and injection site observation (Example 1); assay type: in vivo; settings: two pigs
# Method: Two pigs were anesthetized and placed on their right side. Access to the L4-5 intervertebral disc was obtained through a lateral incision between the lowest rib and the iliac crest on the left side of each pig. Thereafter, the L3-4 intervertebral disc was incised with a scalpel.
# The composition was injected in a single step at a single occasion.
# At harvest, the pigs were killed.
# The injection site was observed by the naked eye. […] The segment of the vertebral column extending from the lumbar vertebra L2 to the sacral vertebra S1 was removed. The facet joints were removed, thus allowing full flexibility of the discs with no restraints from other structures.
# [1] = system: intervertebral disc L1/2 to L3/4; experiment: Disc height on post-mortem X-ray (Example 3); assay type: in vivo, pig; settings: 120 or 240 mg/ml lactic acid + iohexol, 0.2 ml; both doses; 2, 28 and 84 days; FIG. 16
# Source text: (§1) Eleven pigs were anesthetized and placed on their right side. Through a lateral incision the discs to be injected were exposed. […] After 2, 28 or 84 days the pigs were killed and the lumbar spine was harvested. All musculature was removed as well as the facet joints and ligamentum flavum between the L1/2, L2/3 and L3/4 vertebrae. The following endpoints were used: • A. X-ray pictures were taken at the day of injection and at the harvest day to ascertain that the injection was correctly placed and to determine if the discs were radio-opaque after 2, 28 and 84 days. • B. The X-rays taken post-mortem were used to measure disc height. • C. The sectioned discs were photographed and the degree of fibrotisation was visually evaluated.
# [2] = system: nucleus pulposus of the L3-4 intervertebral disc; experiment: Flexion stiffness of the injected intervertebral disc (Example 1); assay type: in vivo, pig; settings: injected disc L 3-4; 0.2 mL of 1.34 mol/L lactic acid into nucleus pulposus; seven days after injection; mean ± SD; two pigs
# Method: Access to the L4-5 intervertebral disc was obtained through a lateral incision between the lowest rib and the iliac crest on the left side of each pig. Thereafter, the L3-4 intervertebral disc was incised with a scalpel. […] The composition was injected in a single step at a single occasion.
# [3] = system: intervertebral disc L1/2 to L3/4; experiment: Visual evaluation of fibrotisation of the nucleus space (Example 3); assay type: in vivo, pig
# Source text: as §1
# [4] = system: nucleus pulposus of the L3-4 intervertebral disc; experiment: Dimension of the disc space after administration (Example 1); assay type: in vivo, pig; settings: injected disc L 3-4; 0.2 mL of 1.34 mol/L lactic acid; seven days after injection; mean ± SD
# Method: 110. performing a cross-section of the discs and measuring the length (anterio-posterior direction) and the width (bilateral direction) of the disc space. Two pigs were anesthetized and placed on their right side. Access to the L4-5 intervertebral disc was obtained through a lateral incision between the lowest rib and the iliac crest on the left side of each pig. Thereafter, the L3-4 intervertebral disc was incised with a scalpel. […] The composition was injected in a single step at a single occasion. The intervertebral discs (L2-3, L3-4, L4-5) were cross-sectioned and the length of the disc space (anterio-posterior direction) and the width (bilateral direction) of the disc space were measured by calipers. In FIGS. 5 and 6, an intervertebral disc is schematically shown in cross-section. The intervertebral disc comprises the annulus fibrosus 10, and a disc space defined by the annulus fibrosus and comprising the nucleus pulposus 11.
smiles,measurement,setting,value
CC(O)C(=O)O (stereo not drawn) [lactic acid],Adverse reaction such as decreased mobility or vocalization,"pig; 0.2 mL of 1.34 mol/L lactic acid intradiscal, period of seven days until harvest",no adverse reaction
same,"Adverse reaction at the injection site (bleedings, inflammation or necrosis), naked eye",pig; at harvest seven days after injection,No adverse reaction at the injection site
same,"Disc height, discs injected with lactic acid versus placebo (X-ray)",[1],no difference in height
same,Difference in distance between transverse processes before and upon full lateral flexion,[2],0.3 ± 0.6 mm
same,Fibrotisation of the nucleus space,"[3]; 84 days after injection, some discs, FIG. 17a",fibrosis was close to complete
same,Fibrotisation of the nucleus space,"[3]; after 2 days, 120 or 240 mg/ml lactic acid, 0.2 ml, some discs",tendency to fibrotisation
same,Fibrotisation of the nucleus space,"[3]; after 28 days, 120 or 240 mg/ml lactic acid, 0.2 ml",fibrotisation was evident
same,Average antero-posterior length of the disc space,[4],13.5 ± 1.3 mm
same,Average bilateral width of the disc space,[4],4.0 ± 1.4 mm
